Experimental data as given in the NIST ThermoML archive (doi:10.1021/je7006692).
Numbers after ± are expanded uncertainties.

Test: relative permittivity at zero frequency (dimensionless)
Conditions: Liquid

Cc1ccccc1 [toluene]
Reentrant cavity resonator
Conditions	relative permittivity at zero frequency
290.63 K, 100 kPa	2.40453 ± 0.006
290.65 K, 100 kPa	2.40448 ± 0.006
290.69 K, 2170 kPa	2.41272 ± 0.00061
290.77 K, 4240 kPa	2.41409 ± 0.00061
290.81 K, 6310 kPa	2.41721 ± 0.00061
290.83 K, 8370 kPa	2.4202 ± 0.00061
290.87 K, 12510 kPa	2.42629 ± 0.00061
290.88 K, 16100 kPa	2.43136 ± 0.00061
290.9 K, 16650 kPa	2.4322 ± 0.00061
291.15 K, 100 kPa	2.3983 ± 0.006
292.65 K, 100 kPa	2.40346 ± 0.006
294.8 K, 100 kPa	2.39092 ± 0.006
310.68 K, 100 kPa	2.35675 ± 0.006
310.79 K, 100 kPa	2.35646 ± 0.006
311.94 K, 100 kPa	2.35363 ± 0.006
314.47 K, 100 kPa	2.3479 ± 0.006
315.68 K, 100 kPa	2.34035 ± 0.006
315.77 K, 100 kPa	2.33999 ± 0.006
315.78 K, 1140 kPa	2.34185 ± 0.00061
315.78 K, 8370 kPa	2.35428 ± 0.00061
315.79 K, 2170 kPa	2.34366 ± 0.00061
315.79 K, 3200 kPa	2.34545 ± 0.00061
315.79 K, 4240 kPa	2.34729 ± 0.00061
315.79 K, 6310 kPa	2.35078 ± 0.00061
315.79 K, 12510 kPa	2.36095 ± 0.00061
315.79 K, 16650 kPa	2.3674 ± 0.00061
315.79 K, 19410 kPa	2.37152 ± 0.00061
320.64 K, 100 kPa	2.32926 ± 0.006
320.66 K, 1140 kPa	2.33114 ± 0.00061
324.52 K, 100 kPa	2.32053 ± 0.006
324.53 K, 1140 kPa	2.32241 ± 0.00061
324.54 K, 2170 kPa	2.32435 ± 0.00061
324.54 K, 3200 kPa	2.32625 ± 0.00061
324.54 K, 4240 kPa	2.32811 ± 0.00061
324.54 K, 6310 kPa	2.33179 ± 0.00061
324.58 K, 8370 kPa	2.33528 ± 0.00061
324.61 K, 12510 kPa	2.34222 ± 0.00061
324.62 K, 16650 kPa	2.34897 ± 0.00061
339.31 K, 100 kPa	2.28784 ± 0.006
339.35 K, 2170 kPa	2.2919 ± 0.00061
339.38 K, 4240 kPa	2.29596 ± 0.00061
339.38 K, 6310 kPa	2.29992 ± 0.00061
339.39 K, 8370 kPa	2.3038 ± 0.00061
339.41 K, 12510 kPa	2.31127 ± 0.00061
339.41 K, 16650 kPa	2.31844 ± 0.00061
357.44 K, 6310 kPa	2.26156 ± 0.00061
357.45 K, 2170 kPa	2.25261 ± 0.00061
357.45 K, 4240 kPa	2.25717 ± 0.00061
357.46 K, 100 kPa	2.24793 ± 0.006
357.52 K, 8370 kPa	2.26578 ± 0.00061
357.54 K, 12510 kPa	2.274 ± 0.00061
357.55 K, 16650 kPa	2.28185 ± 0.00061
390.53 K, 170 kPa	2.17781 ± 0.00064
390.53 K, 2170 kPa	2.18342 ± 0.00061
390.59 K, 100 kPa	2.17698 ± 0.006
390.59 K, 4240 kPa	2.18899 ± 0.00061
390.61 K, 6310 kPa	2.19431 ± 0.00061
390.63 K, 8370 kPa	2.19969 ± 0.00061
390.65 K, 12510 kPa	2.20969 ± 0.00061
390.68 K, 16650 kPa	2.21925 ± 0.00061
405.84 K, 2170 kPa	2.14947 ± 0.00061
406.3 K, 6310 kPa	2.16081 ± 0.00061
406.32 K, 4240 kPa	2.15467 ± 0.00061
406.37 K, 8370 kPa	2.16653 ± 0.00061
406.54 K, 12510 kPa	2.17721 ± 0.00061
406.64 K, 16650 kPa	2.18731 ± 0.00061

Conditions	relative permittivity at zero frequency
297.37 K, 34905 kPa	2.443 ± 0.004
297.37 K, 41879 kPa	2.4564 ± 0.004
297.38 K, 27906 kPa	2.4276 ± 0.004
297.39 K, 20942 kPa	2.4127 ± 0.004
297.4 K, 13927 kPa	2.3962 ± 0.004
297.41 K, 6919 kPa	2.3777 ± 0.004
